Reference: US5856127A, “Antimicrobial peptides” (The Research Foundation of State University of New York, priority 1996, dated 1999)
Where a SMILES comes first, the peptide text is derived from it.

How the values were obtained:
Salix lucida pollen = type: cell-based; conditions: pH 6.2
Method: Willow pollen was extracted using the protocol described by de Niella and Maynard (1993). Catkins were gently stirred in carbon tetrachloride. The pollen/carbon tetrachloride suspension was filtered (Whatman filter paper) with suction. The pollen was transferred to microfuge tubes (1.5 ml) with a fine-bristle artist's brush and stored at -20° C.
(§1) To rehydrate, small amounts of pollen were placed in open microfuge tubes (1.5 ml) which were placed into a closed glass petri dish with a dampened tissue. Pollen was rehydrated overnight in a dark chamber at 14° C.
(§2) Rehydrated plant pollen was diluted with sucrose-boric acid medium ("SBM") to a concentration of 80 grains/μl (Neubauer hemocytometer). Media for pollen germination (SBM, pH 6.2) was prepared with deionized distilled water, sucrose (150 g/L), and boric acid (150 mg/L). Dilutions of all peptides tested against rehydrated pollen grains were aseptically prepared with sterile SBM. Aliquots (50 μl) of peptide solutions were aseptically placed in ELISA microtitre plates as before. Approximately 400 pollen grains (5 μl) were added to the 50 μl volume of peptide solution in the well to give the final peptide concentrations of 0, 1.25, 2.5, 5, 10, 15, 20, 25, 50, 100, 150, 200, and 250 μM. Microtitre plates were incubated in the dark at room temperature for 24 hr. […] All tests were repeated 4 or more times. Controls without peptides were included with all tests. The highest concentration tested was 250 μM.

[1] = tested on: Castanea mollissima pollen; type: cell-based; conditions: pH 6.2
Method: (§3) Pollen collections for Chinese chestnut (Castanea mollissima), tomato (Lycopersicon esculentum), and willow (Salix lucida) clone 507 were made in central New York. Chestnut catkins and tomato flowers were placed into paper bags in an ice chest. Within 2 hr after collection, catkins were cut into 1.0 cm segments and tomato anthers were placed into sterile 15 ml Falcon tubes. The tubes were "capped" with parafilm punctured with 12-15 holes and lyophilized for 24 hr. Lyophilized samples were stored at -20°C. until removed for rehydration.
as §1, §2

Malus domestica pollen = type: cell-based; conditions: pH 6.2
Method: Apple (Malus domestica) cultivar "Empire" pollen was supplied by Susan Brown, Department of Horticultural Sciences, Cornell University, New York State Agricultural Experiment Station, Geneva, N.Y.
as §1, §2

[2] = tested on: Lycopersicon esculentum pollen; type: cell-based; conditions: pH 6.2
Method: as §3, §1, §2

[3] = tested on: microorganisms and animal red blood cells; conditions: cited from earlier work
Fusarium oxysporum = experiment: MIC against fungal conidia (Fusarium oxysporum); type: cell-based; conditions: f. sp. lycopersici strain 73, PDAmb pH 5.2, scored at 6 days
Method: (§4) Dilutions of peptides, prepared in sterile deionized water, were placed (20 μl aliquots) in Corning disposable sterile polystyrene ELISA plates (96 well, high binding) which had been pretreated with bovine serum albumin by rinsing each well with 200 μl of a 1.0 mg/ml solution.
(§5) Media (PDAmb, pH 5.2) was prepared with deionized water, Difco potato dextrose broth (12 g/L), Sigma D,L-methionine (0.05 g/L), Sigma biotin (2 mg/L), and FisherBiotech low melting point agarose (20 g/L). Sterilized media was added to the wells to make a final volume of 100 μl and allowed to harden for 3 hr prior to inoculation with 10 μl of conidial suspension. Peptide concentrations tested were 0, 1.25, 2.5, 5, 10, 15, 20, 25, 50, 100, 150, 200, and 250 μM.
(§6) Fungal conidial suspensions were aseptically prepared from agar plate cultures of C. parasitica and S. musiva or liquid cultures for F. oxysporum f.sp. lycopersici. Conidia were suspended from agar plates with 10 ml sterile 1% Tween 20. All culture suspensions were filtered through four layers of sterile cheesecloth, collected in sterile 15 ml Falcon tubes, and centrifuged for 3 min at 1900×g. The pellets were then suspended in 10 ml sterile deionized water and centrifuged for 3 min at 1900×g. The "washed" pellets were suspended in 5 ml sterile deionized water. The conidial concentration was determined using a hemocytometer (Fisher ultra plane, Neubauer ruling) and then diluted to 1.0×10^4 conidia/ml.
(§7) Approximately 100 conidia (10 μl) were transferred to each microtitre plate well. Microtitre plates were incubated in ambient light at room temperature in a moist chamber (plastic box containing wet paper towels and covered with clear plastic wrap). Tests with S. musiva used continuous light. Plates were scored for growth at 6 days and photographed. All tests were repeated 4 or more times. Controls without peptides were included with all tests.

Septoria musiva = experiment: MIC against fungal conidia (Septoria musiva); type: cell-based; conditions: strain 92-49C, PDAmb pH 5.2, scored at 6 days, total prevention of germination
Method: as §4, §5, §6, §7

Erwinia amylovora = experiment: MIC against bacteria (Erwinia amylovora); type: cell-based; conditions: Collection 88-100, no visible lawn or colonies after 3 days
Method: as §4
(§8) Bacterial suspensions of A. tumefaciens, E. amylovora, and P. syringae were obtained from liquid cultures grown in Luria Broth (Atlas and Parks 1993). Cultures were grown at 25°C. on a rotary shaker (110 rpm) for 14 hr. Bacterial cell suspensions with an optical density between 0.7 and 0.85 at 600 nanometers (OD600) were used for assay inoculations. Dilutions of peptides were placed in the 96-well ELISA plates as described above. The final peptide concentrations tested were 0, 0.625, 1.25, 2.5, 5, 10, 15, 20, 25, 50, 100, and 250 μM. All tests were repeated 2 or more times. Controls without peptides were included with all tests. The MIC for bacterial cells was the lowest peptide concentration associated with no visible bacterial lawn or isolated colonies on the medium after 3 days in all the repeated tests.

[4] = tested on: selected filamentous fungi; experiment: Activity against filamentous fungi relative to magainin (applicants' observation); type: cell-based; conditions: three amino acid substitution versus magainin
[5] = tested on: Agrobacterium tumefaciens; experiment: MIC against bacteria (Agrobacterium tumefaciens); type: cell-based; conditions: wild-type strain Bo542, no visible lawn or colonies after 3 days
Method: as §4, §8

Cryphonectria parasitica = experiment: MIC against fungal conidia (Cryphonectria parasitica); type: cell-based; conditions: strain EP42, PDAmb pH 5.2, scored at 6 days
Method: as §4, §5, §6, §7

bacteria = experiment: Activity against bacteria relative to magainin (applicants' observation); type: cell-based; conditions: three amino acid substitution versus magainin
Pseudomonas syringae = experiment: MIC against bacteria (Pseudomonas syringae); type: cell-based; conditions: Collection PSS34, no visible lawn or colonies after 3 days
Method: as §4, §8

[6] = combined with either magainin I or magainin II in a 1:1 molar ratio; cited from earlier work
Pseudomonas aeruginosa = conditions: against Pseudomonas aeruginosa; cited from earlier work
Candida albicans = conditions: against the yeast Candida albicans; cited from earlier work

CSCC[C@H](N)C(=O)N[C@@H](C)C(=O)N[C@@H](CO)C(=O)N[C@@H](CCCNC(=N)N)C(=O)N[C@@H](C)C(=O)N[C@@H](C)C(=O)NCC(=O)N[C@@H](CC(C)C)C(=O)N[C@@H](C)C(=O)N[C@@H](C)C(=O)N[C@@H](CCCNC(=N)N)C(=O)N[C@@H](CC(C)C)C(=O)N[C@@H](C)C(=O)N[C@@H](CCCNC(=N)N)C(=O)N[C@@H](CC(C)C)C(=O)N[C@@H](C)C(=O)N[C@@H](CC(C)C)C(=O)N[C@@H](CCCNC(=N)N)C(=O)N[C@@H](C)C(=O)N[C@@H](CC(C)C)C(=O)O [ESF1] (H-MASRAAGLAARLARLALRAL-OH)
MIC, Salix lucida (Salix lucida pollen): > 250 µM | MIC, Castanea mollissima [1]: > 250 µM

CSCC[C@H](N)C(=O)N[C@@H](C)C(=O)N[C@@H](CO)C(=O)N[C@@H](CCCNC(=N)N)C(=O)N[C@@H](C)C(=O)N[C@@H](C)C(=O)NCC(=O)N[C@@H](CC(C)C)C(=O)N[C@@H](C)C(=O)N[C@@H](CCCNC(=N)N)C(=O)N[C@@H](CCCNC(=N)N)C(=O)N[C@@H](CC(C)C)C(=O)N[C@@H](C)C(=O)N[C@@H](CCCNC(=N)N)C(=O)N[C@@H](CC(C)C)C(=O)N[C@@H](C)C(=O)N[C@@H](CCCNC(=N)N)C(=O)N[C@@H](CCCNC(=N)N)C(=O)N[C@@H](C)C(=O)N[C@@H](CC(C)C)C(=O)O [ESF5] (H-MASRAAGLARRLARLARRAL-OH)
MIC, Salix lucida (Salix lucida pollen): > 250 µM | MIC, Castanea mollissima [1]: > 250 µM

CSCC[C@H](N)C(=O)N[C@@H](C)C(=O)N[C@@H](C)C(=O)N[C@@H](CCCNC(=N)N)C(=O)N[C@@H](C)C(=O)N[C@@H](C)C(=O)NCC(=O)N[C@@H](CC(C)C)C(=O)N[C@@H](C)C(=O)N[C@@H](C)C(=O)N[C@@H](CCCNC(=N)N)C(=O)N[C@@H](CC(C)C)C(=O)N[C@@H](C)C(=O)N[C@@H](C)C(=O)N[C@@H](CC(C)C)C(=O)N[C@@H](C)C(=O)N[C@@H](CC(C)C)C(=O)N[C@@H](CCCNC(=N)N)C(=O)N[C@@H](C)C(=O)N[C@@H](CC(C)C)C(=O)O [ESF6] (H-MAARAAGLAARLAALALRAL-OH)
MIC, Salix lucida (Salix lucida pollen): > 250 µM | MIC, Castanea mollissima [1]: > 250 µM

CSCC[C@H](N)C(=O)N[C@@H](C)C(=O)N[C@@H](CO)C(=O)N[C@@H](CCCNC(=N)N)C(=O)N[C@@H](C)C(=O)N[C@@H](C)C(=O)NCC(=O)N[C@@H](CC(C)C)C(=O)N[C@@H](C)C(=O)N[C@@H](C)C(=O)N[C@@H](CCCNC(=N)N)C(=O)N[C@@H](CC(C)C)C(=O)N[C@@H](C)C(=O)N[C@@H](CCCNC(=N)N)C(=O)N[C@@H](CC(C)C)C(=O)N[C@@H](C)C(=O)N[C@@H](CC(C)C)C(=O)N[C@@H](CCCNC(=N)N)C(=O)O [ESF12] (H-MASRAAGLAARLARLALR-OH)
MIC, Salix lucida (Salix lucida pollen): > 250 µM | MIC, Malus domestica (Malus domestica pollen): > 250 µM | MIC, Lycopersicon esculentum [2]: > 250 µM | MIC, Castanea mollissima [1]: > 250 µM

CC[C@H](C)[C@H](NC(=O)CN)C(=O)NCC(=O)N[C@@H](C)C(=O)N[C@H](C(=O)N[C@@H](CC(C)C)C(=O)N[C@@H](CCCCN)C(=O)N[C@H](C(=O)N[C@@H](CC(C)C)C(=O)N[C@H](C(=O)N[C@H](C(=O)NCC(=O)N[C@@H](CC(C)C)C(=O)N1CCC[C@H]1C(=O)N[C@@H](C)C(=O)N[C@@H](CC(C)C)C(=O)N[C@H](C(=O)N[C@@H](CO)C(=O)N[C@@H](Cc1c[nH]c2ccccc12)C(=O)N[C@H](C(=O)N[C@@H](CCCCN)C(=O)N[C@@H](CCCNC(=N)N)C(=O)N[C@@H](CCCCN)C(=O)N[C@@H](CCCNC(=N)N)C(=O)N[C@@H](CCC(N)=O)C(=O)N[C@@H](CCC(N)=O)C(N)=O)[C@@H](C)CC)[C@@H](C)CC)[C@@H](C)O)[C@@H](C)O)C(C)C)C(C)C [melittin]
lytic activity [3]: very lytic

(Ala^8,13,15)magainin II [Ala^8,13,15 Magainin II]
MIC, Fusarium oxysporum (Fusarium oxysporum): 15 µM | MIC, Septoria musiva (Septoria musiva): 10 µM | MIC, Erwinia amylovora (Erwinia amylovora): 250 µM | change of magainin activity against selected filamentous fungi [4]: opposite effect | MIC, Agrobacterium tumefaciens [5]: 100 µM | MIC, Cryphonectria parasitica (Cryphonectria parasitica): 30 µM | change of magainin activity against bacteria (bacteria): increased magainin activity against bacteria | MIC, Pseudomonas syringae (Pseudomonas syringae): 250 µM

Magainin I
MIC, Fusarium oxysporum (Fusarium oxysporum): 15 µM | MIC, Septoria musiva (Septoria musiva): 5 µM | MIC, Cryphonectria parasitica (Cryphonectria parasitica): 10 µM

PGLa
increase of antimicrobial activity [6]: 20-50 fold | times more active than XPF (Pseudomonas aeruginosa): 4-5 times

XPF
times more effective than PGLa (Candida albicans): 2-2.5 times

cecropin B
MIC, Fusarium oxysporum (Fusarium oxysporum): 20 µM | MIC, Septoria musiva (Septoria musiva): 5 µM | MIC, Cryphonectria parasitica (Cryphonectria parasitica): 15 µM
